Laboratory results from patent US20260250320A1, “LIPIDATED PEPTIDE INHIBITORS OF INTERLEUKIN-23 RECEPTOR” (Janssen Pharmaceutica NV, priority 2023, published 2026).
*1 amine or outer side, *2 acyl side, *3 side chain or, on linkers, in order; H or OH if unused. Where a SMILES comes first, the peptide text is derived from it. Bridges are numbered along the chain shown (N, C = ends). Side-chain parts run from the residue outwards. [ ]: non-standard residue; d: D form. The star is where a group is joined. X23 = CN(CCOCCOCC(=O)N(C)CCOCCOCC(=O)*)C(=O)CC[C@H](C(=O)O)N(C)C(=O)CCCCCCCCCCCCCCCCC(=O)O; X11 = CN(CC(N)=O)C(=O)[C@H](Cc1cccnc1)NC(O)[C@H](CC(N)=O)N*; X21 = NC(=O)C[C@H](N[*:1])C(=O)C[C@@H](Cc1cccnc1)C(=O)[*:2]; Me3N+(CH2)2O(CH2)2O(CH2)2CO = C[N+](C)(C)CCOCCOCCC(=O)*; Trp(7-Me) = Cc1cccc2c(C[C@H](N)C(=O)O)c[nH]c12; Hexanoyl(6-NMe3+) = C[N+](C)(C)CCCCCC(=O)*; C18 diacid = O=C(O)CCCCCCCCCCCCCCCCC(=O)*; γGlu = O=C(O)[C@H](CCC(=O)[*:2])N[*:1]; 2Nal = N[C@@H](Cc1ccc2ccccc2c1)C(=O)O; AEF = NCCOc1ccc(C[C@H](N)C(=O)O)cc1; 3Pal = N[C@@H](Cc1cccnc1)C(=O)O; Lys(Me) = CNCCCC[C@H](N)C(=O)O; NMeK = CN[C@@H](CCCCN)C(=O)O; Pen = CC(C)(S)[C@H](N)C(=O)O; Thp = NC1(C(=O)O)CCOCC1; AEEA = NCCOCCOCC(=O)O; Sar = CNCC(=O)O

Legend:
[1] = tested on: IL-23-stimulated phosphorylated STAT3 in peripheral blood mononuclear cells (PBMCs); assay: PBMC pSTAT3 Assay; assay type: cell-based; conditions: PBMCs from healthy donors; 30 min preincubation with peptide; IL-23 5 ng/mL for 30 min; phospho-STAT3 by MSD
In short: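 Phospho-STAT3 quantified by Meso Scale assay in lysates of PBMCs exposed to IL-23 (5 ng/mL, 30 min, 37 °C) after 30 min peptide pretreatment. Cells were cryopreserved donor PBMCs activated 4 days with anti-CD3 plus IL-1β (100 ng/mL) and starved ~4 h; IC50 reported.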

[2] = target: T1, IL-23R (Homo sapiens, UniProt Q5VWK5); assay: IL23R Reporter Assay; assay type: cell-based; conditions: HEK293 cells containing IL-23R, IL-12Rβ1 and STAT-inducible firefly luciferase reporter; 10 ng/mL IL-23 (EC90); 5 h
T1 construct: HEK293 cells containing IL-23R, IL-12Rβ1 and a firefly luciferase reporter gene driven by a STAT-inducible promoter (Promega); host or cells: HEK293
T1 sequence (Q5VWK5 24-629): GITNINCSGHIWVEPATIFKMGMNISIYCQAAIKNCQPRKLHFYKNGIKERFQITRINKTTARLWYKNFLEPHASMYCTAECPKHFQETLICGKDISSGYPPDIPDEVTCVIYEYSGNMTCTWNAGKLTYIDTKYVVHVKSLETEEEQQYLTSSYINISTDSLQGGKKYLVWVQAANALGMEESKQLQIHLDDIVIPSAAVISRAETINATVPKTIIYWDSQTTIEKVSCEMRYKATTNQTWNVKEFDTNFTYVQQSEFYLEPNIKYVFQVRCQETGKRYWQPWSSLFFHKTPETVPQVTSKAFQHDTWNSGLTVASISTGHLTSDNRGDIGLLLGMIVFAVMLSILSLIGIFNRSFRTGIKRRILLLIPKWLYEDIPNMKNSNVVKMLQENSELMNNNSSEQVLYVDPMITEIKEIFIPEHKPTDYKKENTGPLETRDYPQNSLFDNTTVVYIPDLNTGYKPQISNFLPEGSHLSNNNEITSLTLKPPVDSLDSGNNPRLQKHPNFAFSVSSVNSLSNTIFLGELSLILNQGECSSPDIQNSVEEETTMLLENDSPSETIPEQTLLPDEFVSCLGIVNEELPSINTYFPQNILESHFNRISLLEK
In short: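 IC50 values were fitted with a 4-parameter Hill equation to luciferase signal, scaled between IL-23-only wells (0% inhibition) and 30 μM reference inhibitor (100%). The readout was a STAT-inducible reporter in IL-23R/IL-12Rβ1 HEK293 cells, stimulated with added 10 ng/mL IL-23 (EC90) for 5 h at 37° C and developed with BioGlo.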

Row | IC50 [2] [nM] | Compound | IC50 [1] [nM]
1 | 50 to 500 | CC(=O)N[C@H](CCCNC(=N)N)C(=O)N[C@@H]1C(=O)N[C@@H](CC(N)=O)C(=O)N[C@@H]([C@@H](C)O)C(=O)N[C@@H](Cc2c[nH]c3c(C)cccc23)C(=O)N[C@@H](CCCCNC(=O)COCCOCCNC(=O)COCCOCCNC(=O)CC[C@H](NC(=O)CCCCCCCCCCCCCCCCC(=O)O)C(=O)O)C(=O)N[C@H](C(=O)N[C@@H](Cc2ccc(OCCN)cc2)C(=O)N[C@@H](Cc2ccc3ccccc3c2)C(=O)NC2(C(=O)N[C@@H](CCCCN(C)C(=O)CCOCCOCC[N+](C)(C)C)C(=O)N[C@@H](CC(N)=O)C(=O)C[C@@H](Cc3cccnc3)C(=O)N(C)CC(N)=O)CCOCC2)C(C)(C)SSC1(C)C [compound 79, MeCO-r-Pen(3)-N-T-7MeW-K(PEG2PEG2gEC18OH)-Pen(3)-AEF-2Nal-THP-K(NMecPEG3a)-N-3Pya-Sar-CONH2] (Ac-[dR][Pen]NT[Trp(7-Me)]K([AEEA-AEEA-γGlu-C18 diacid])[Pen][AEF][2Nal][Thp][Lys(Me)](Me3N+(CH2)2O(CH2)2O(CH2)2CO)[X21][Sar]-NH2; disulfide 2-7) | < 0.5
2 | 50 to 500 | CC(=O)NCCCC[C@@H]1NC(=O)[C@H](Cc2c[nH]c3c(C)cccc23)NC(=O)[C@H]([C@@H](C)O)NC(=O)[C@H](CC(N)=O)NC(=O)[C@@H](NC(=O)[C@@H](CCCNC(=N)N)NC(C)=O)C(C)(C)SSC(C)(C)[C@@H](C(=O)N[C@@H](Cc2ccc(OCCN)cc2)C(=O)N[C@@H](Cc2ccc3ccccc3c2)C(=O)NC2(C(=O)N[C@@H](CCC(=O)O)C(=O)N[C@@H](CC(N)=O)C(=O)N[C@@H](Cc3cccnc3)C(=O)N(C)[C@@H](CCCCNC(=O)COCCOCCN(C)C(=O)COCCOCCN(C)C(=O)CC[C@H](C(=O)O)N(C)C(=O)CCCCCCCCCCCCCCCCC(=O)O)C(N)=O)CCOCC2)NC1=O [compound 80, MeCO-r-Pen(3)-N-T-7MeW-K(Ac)-Pen(3)-AEF-2Nal-THP-E-N-3Pya-NMeK(PEG2NMePEG2NMegENMeC18OH)-CONH2] (Ac-[dR][Pen]NT[Trp(7-Me)]K(Ac)[Pen][AEF][2Nal][Thp]EN[3Pal][NMeK](X23)-NH2; disulfide 2-7) | < 0.5
3 | 50 to 500 | CC(=O)NCCCC[C@@H]1NC(=O)[C@H](Cc2c[nH]c3c(C)cccc23)NC(=O)[C@H]([C@@H](C)O)NC(=O)[C@H](CC(N)=O)NC(=O)[C@@H](NC(=O)[C@@H](CCCNC(=N)N)NC(=O)CCCCC[N+](C)(C)C)C(C)(C)SSC(C)(C)[C@@H](C(=O)N[C@@H](Cc2ccc(OCCN)cc2)C(=O)N[C@@H](Cc2ccc3ccccc3c2)C(=O)NC2(C(=O)N[C@@H](CCC(=O)O)C(=O)N[C@@H](CC(N)=O)C(=O)N[C@@H](Cc3cccnc3)C(=O)N(C)CC(=O)N[C@@H](CCCCNC(=O)COCCOCCNC(=O)COCCOCCNC(=O)CC[C@H](NC(=O)CCCCCCCCCCCCCCCCC(=O)O)C(=O)O)C(N)=O)CCOCC2)NC1=O [compound 81, 5cpaCO-r-Pen(3)-N-T-7MeW-K(Ac)-Pen(3)-AEF-2Nal-THP-E-N-3Pya-Sar-K(PEG2PEG2gEC18OH)-CONH2] ({Hexanoyl(6-NMe3+)}-[dR][Pen]NT[Trp(7-Me)]K(Ac)[Pen][AEF][2Nal][Thp]EN[3Pal][Sar]K([AEEA-AEEA-γGlu-C18 diacid])-NH2; disulfide 2-7) | < 0.5
4 | < 50 | CC(=O)NCCCC[C@@H]1NC(=O)[C@H](Cc2c[nH]c3c(C)cccc23)NC(=O)[C@H]([C@@H](C)O)NC(=O)[C@H](CC(N)=O)NC(=O)[C@@H](NC(=O)[C@@H](CCCNC(=N)N)NC(=O)COCCOCCNC(=O)COCCOCCNC(=O)CC[C@H](NC(=O)CCCCCCCCCCCCCCCCC(=O)O)C(=O)O)C(C)(C)SSC(C)(C)[C@@H](C(=O)N[C@@H](Cc2ccc(OCCN)cc2)C(=O)N[C@@H](Cc2ccc3ccccc3c2)C(=O)NC2(C(=O)N[C@@H](CCCCN(C)C(=O)CCOCCOCC[N+](C)(C)C)C(=O)N[C@@H](CC(N)=O)C(O)N[C@@H](Cc3cccnc3)C(=O)N(C)CC(N)=O)CCOCC2)NC1=O (stereo partly drawn) [compound 82, HOC18gEPEG2PEG2CO-r-Pen(3)-N-T-7MeW-K(Ac)-Pen(3)-AEF-2Nal-THP-K(NMecPEG3a)-N-3Pya-Sar-CONH2] ({C18 diacid-γGlu-AEEA-AEEA}-[dR][Pen]NT[Trp(7-Me)]K(Ac)[Pen][AEF][2Nal][Thp][Lys(Me)](Me3N+(CH2)2O(CH2)2O(CH2)2CO)-X11; disulfide 2-7) | < 0.5
